From PubChem BioAssay (NCI)
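Following 48 hours of exposure in 96-well plates, responses at five concentrations were used to interpolate endpoints linearly. Definition used: TGI = concentration required for complete inhibition of growth.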

Tests used:
Assay in all cases: DTP human tumour cell line panel, 48 h
KM12 colon = system: KM12 colon
COLO 205 colon = system: COLO 205 colon
SN12C renal = system: SN12C renal
SK-MEL-2 melanoma = system: SK-MEL-2 melanoma
HOP-92 NSCLC = system: HOP-92 NSCLC
SF-268 CNS = system: SF-268 CNS
IGROV1 ovarian = system: IGROV1 ovarian
SW-620 colon = system: SW-620 colon
T-47D breast = system: T-47D breast
SR leukemia = system: SR leukemia
NCI-H460 lung = system: NCI-H460 lung
NCI-H23 lung = system: NCI-H23 lung
K-562 leukemia = system: K-562 leukemia
LOX IMVI melanoma = system: LOX IMVI melanoma
MALME-3M melanoma = system: MALME-3M melanoma
PC-3 prostate = system: PC-3 prostate
NCI-H226 lung = system: NCI-H226 lung
CCRF-CEM leukemia = system: CCRF-CEM leukemia
SNB-75 CNS = system: SNB-75 CNS
HL-60(TB) leukemia = system: HL-60(TB) leukemia

Structure (SMILES): O=c1oc2nc(-c3ccccc3)cc(C(F)(F)F)c2n1Cc1ccccc1
- TGI (KM12 colon): > 100 µM
- TGI (COLO 205 colon): > 100 µM
- TGI (SN12C renal): > 100 µM
- TGI (SK-MEL-2 melanoma): > 100 µM
- TGI (HOP-92 NSCLC): > 100 µM
- TGI (SF-268 CNS): > 100 µM
- TGI (IGROV1 ovarian): > 43.5 µM
- TGI (SW-620 colon): > 100 µM
- TGI (T-47D breast): > 45 µM
- TGI (SR leukemia): > 100 µM
- TGI (NCI-H460 lung): > 100 µM
- TGI (NCI-H23 lung): > 59.6 µM
- TGI (K-562 leukemia): > 100 µM
- TGI (LOX IMVI melanoma): > 100 µM
- TGI (MALME-3M melanoma): 98.5 µM
- TGI (PC-3 prostate): > 100 µM
- TGI (NCI-H226 lung): > 100 µM
- TGI (CCRF-CEM leukemia): > 26.1 µM

Structure (SMILES): C1=Nc2sc3c(c2C2=NCCN12)CCCC3
- TGI (KM12 colon): 31.3 µM
- TGI (SNB-75 CNS): 34.9 µM
- TGI (COLO 205 colon): 53.2 µM
- TGI (SK-MEL-2 melanoma): 20.7 µM
- TGI (SF-268 CNS): 52.1 µM
- TGI (IGROV1 ovarian): 30.8 µM
- TGI (SW-620 colon): 43.8 µM
- TGI (T-47D breast): 39.9 µM
- TGI (SR leukemia): > 100 µM
- TGI (NCI-H460 lung): 32.4 µM
- TGI (NCI-H23 lung): 29.3 µM
- TGI (K-562 leukemia): > 100 µM
- TGI (LOX IMVI melanoma): 28.2 µM
- TGI (HL-60(TB) leukemia): 36.5 µM
- TGI (MALME-3M melanoma): 32.9 µM
- TGI (PC-3 prostate): 30.7 µM
- TGI (NCI-H226 lung): 33.2 µM

Structure (SMILES): Cc1ccc(/C(=C\C(=O)C(=O)NC23CC4CC(CC(C4)C2)C3)Sc2ccccc2)cc1
- TGI (KM12 colon): > 10 µM
- TGI (SNB-75 CNS): > 10 µM
- TGI (COLO 205 colon): > 10 µM
- TGI (SN12C renal): > 10 µM
- TGI (SK-MEL-2 melanoma): > 10 µM
- TGI (SF-268 CNS): > 10 µM
- TGI (IGROV1 ovarian): > 10 µM
- TGI (SW-620 colon): > 10 µM
- TGI (T-47D breast): > 10 µM
- TGI (SR leukemia): > 10 µM
- TGI (NCI-H460 lung): > 10 µM
- TGI (NCI-H23 lung): > 10 µM
- TGI (K-562 leukemia): > 10 µM
- TGI (LOX IMVI melanoma): > 10 µM
- TGI (HL-60(TB) leukemia): > 10 µM
- TGI (MALME-3M melanoma): > 10 µM
- TGI (PC-3 prostate): > 10 µM
- TGI (NCI-H226 lung): > 10 µM
- TGI (CCRF-CEM leukemia): > 10 µM

Structure (SMILES): O=C(O)c1ccc(-c2nc3ccc(Cl)cc3[nH]2)cc1
- TGI (KM12 colon): > 100 µM
- TGI (SNB-75 CNS): > 100 µM
- TGI (COLO 205 colon): > 100 µM
- TGI (SN12C renal): > 100 µM
- TGI (SK-MEL-2 melanoma): > 100 µM
- TGI (HOP-92 NSCLC): > 100 µM
- TGI (IGROV1 ovarian): > 100 µM
- TGI (SW-620 colon): > 100 µM
- TGI (T-47D breast): > 100 µM
- TGI (SR leukemia): > 100 µM
- TGI (K-562 leukemia): > 100 µM
- TGI (HL-60(TB) leukemia): > 100 µM
- TGI (PC-3 prostate): > 100 µM
- TGI (NCI-H226 lung): > 100 µM
- TGI (CCRF-CEM leukemia): > 100 µM

Structure (SMILES): CSC1=NC(C(N)=O)C(N)N1C (stereo not drawn)
- TGI (KM12 colon): > 100 µM
- TGI (COLO 205 colon): > 100 µM
- TGI (SN12C renal): > 100 µM
- TGI (SK-MEL-2 melanoma): > 100 µM
- TGI (HOP-92 NSCLC): > 100 µM
- TGI (SF-268 CNS): > 100 µM
- TGI (IGROV1 ovarian): > 100 µM
- TGI (SW-620 colon): > 100 µM
- TGI (T-47D breast): > 100 µM
- TGI (SR leukemia): > 100 µM
- TGI (NCI-H460 lung): > 100 µM
- TGI (NCI-H23 lung): > 100 µM
- TGI (K-562 leukemia): > 100 µM
- TGI (LOX IMVI melanoma): > 100 µM
- TGI (HL-60(TB) leukemia): > 100 µM
- TGI (MALME-3M melanoma): > 100 µM
- TGI (PC-3 prostate): > 100 µM
- TGI (NCI-H226 lung): > 100 µM
- TGI (CCRF-CEM leukemia): > 100 µM

Structure (SMILES): Nc1c(-c2nc3ccccc3o2)sc(=S)n1-c1ccc(Cl)cc1
- TGI (KM12 colon): > 100 µM
- TGI (COLO 205 colon): > 100 µM
- TGI (SN12C renal): > 100 µM
- TGI (SK-MEL-2 melanoma): 47.8 µM
- TGI (HOP-92 NSCLC): 63.3 µM
- TGI (SF-268 CNS): 33.9 µM
- TGI (IGROV1 ovarian): 46.3 µM
- TGI (T-47D breast): 33.1 µM
- TGI (SR leukemia): > 100 µM
- TGI (NCI-H460 lung): > 100 µM
- TGI (NCI-H23 lung): 37.8 µM
- TGI (K-562 leukemia): > 100 µM
- TGI (HL-60(TB) leukemia): > 100 µM
- TGI (MALME-3M melanoma): 56.5 µM
- TGI (PC-3 prostate): 82.1 µM
- TGI (NCI-H226 lung): 67.1 µM
- TGI (CCRF-CEM leukemia): > 100 µM

Structure (SMILES): COC(=O)[C@]12CSC[C@H]1C[C@H](c1ccccc1OC)N2
- TGI (KM12 colon): > 100 µM
- TGI (SNB-75 CNS): > 100 µM
- TGI (COLO 205 colon): > 100 µM
- TGI (SN12C renal): > 100 µM
- TGI (SK-MEL-2 melanoma): > 100 µM
- TGI (SF-268 CNS): > 100 µM
- TGI (IGROV1 ovarian): > 100 µM
- TGI (SW-620 colon): > 100 µM
- TGI (T-47D breast): > 100 µM
- TGI (SR leukemia): > 100 µM
- TGI (NCI-H460 lung): > 100 µM
- TGI (NCI-H23 lung): > 100 µM
- TGI (K-562 leukemia): > 100 µM
- TGI (LOX IMVI melanoma): > 100 µM
- TGI (MALME-3M melanoma): > 100 µM
- TGI (PC-3 prostate): > 100 µM
- TGI (NCI-H226 lung): > 100 µM
- TGI (CCRF-CEM leukemia): > 100 µM
